Tests used:
PBM cells = experiment: Cytosolic dsDNA (PicoGreen) and micronuclei staining, PBM cells; type: cell-based, mouse; settings: 2.5 μM, 24 h
Experimental: PBM and PPM cells were cultured on chambered cell culture slides (BD Falcon). Cells were treated with 2.5 μM olaparib or vehicle control (DMSO) for 24 hours. Following the treatment, cells were incubated with culture media containing PicoGreen double-stranded DNA stain (200-fold dilution, Life Technologies). After one-hour incubation, cells were fixed with 4% paraformaldehyde in PBS (Santa Cruz Biotechnology) for 10 minutes. Cells were then washed twice with PBS and stained with 300 nM DAPI (Thermo Fisher Scientific) for 10 minutes. Coverslips were mounted using ProLong Diamond Antifade Mountant (Thermo Fisher Scientific). Staining was imaged using a Leica SP5X laser scanning confocal microscope.

[1] = system: Brca1-proficient and Brca1-deficient tumor cells; experiment: Measurement of IC50 value in tumor cells (MTS, 72 h); type: cell-based; settings: three pairs of models; for gemcitabine except PPM and PBM cells
Experimental: Tumor cells were seeded in 96-well plates at a density of 1000-3000/well and allowed to adhere overnight. Cells were then exposed to appropriate concentrations of therapeutic agents (or vehicle control) with continuous exposure for 72 h. Growth inhibition was measured by CellTiter Aqueous MTS reagent from Promega by comparing the absorbance at 490 nm of drug-treated cells to that of untreated controls set at 100%. 1C50 values were calculated using non-linear regression model (logarithmic inhibitor vs. normalized response-variable slope) in Graphpad Prism 7.

## O=C(c1cc(Cc2n[nH]c(=O)c3ccccc23)ccc1F)N1CCN(C(=O)C2CC2)CC1 [olaparib, Olaparib]
PBM cells
  cytosolic dsDNAs and micronuclei: increased
[1]
  IC50 values, Brca1-deficient lines in comparison to Brca1-proficient counterparts: much more sensitive

From US20200268864A1, “CANCER VACCINE COMPOSITIONS AND METHODS FOR USING SAME TO TREAT CANCER” (Dana-Farber Cancer Institute, Inc., priority 2017, published 2020)
